Test results reported in US20040023945A1, “CYCLIC AMP-SPECIFIC PHOSPHODIESTERASE INHIBITORS” (ICOS Corporation, priority 1999, published 2004).
Where two headings read alike, the source gives them in different places.

How the values were obtained:
[1] = tested on: mouse; assay: Subjective assessment of mouse immobility (CNS side effects); format: in vivo; conditions: for CNS Side Effects: subjective assessment of mouse immobility, 60 minutes
[2] = tested on: recombinant human PDE4; assay: Inhibition of recombinant human PDE4 (cAMP hydrolysis); conditions: read-out: PDE4 IC50
Method: The compounds of structural formula (II) were tested for an ability to inhibit PDE4. […] The IC, value for compounds of structural formula (II) were determined using recombinant human PDE4.
Phosphodiesterase activity of the preparations was determined as follows. […] In this assay, PDE activity converts [32P]cAMP or [32P]cGMP to the corresponding [32P]5′-AMP or [32P]5′-GMP in proportion to the amount of PDE activity present. The [32P]5′-AMP or [32P]5′-GMP then was quantitatively converted to free [32P]phosphate and unlabeled adenosine or guanosine by the action of snake venom 5′-nucleotidase. […] The assay was performed at 30° C. in a 100 μL reaction mixture containing (final concentrations) 40 mM Tris HCl (pH 8.0), 1 μM ZnSO4, 5 mM MgCl2, and 0.1 mg/mL bovine serum albumin (BSA). […] PDE enzyme was present in quantities that yield<30% total hydrolysis of substrate (linear assay conditions). The assay was initiated by addition of substrate (1 mM [32P]cAMP or cGMP), and the mixture was incubated for 12 minutes. Seventy-five (75) μg of Crotalus atrox venom then was added, and the incubation was continued for 3 minutes (15 minutes total). The reaction was stopped by addition of 200 μL of activated charcoal (25 mg/mL suspension in 0.1 M NaH2PO4, pH 4). After centrifugation (750×g for 3 minutes) to sediment the charcoal, a sample of the supernatant was taken for radioactivity determination in a scintillation counter and the PDE activity was calculated.

[3] = tested on: human peripheral blood lymphocytes; assay: Lipopolysaccharide-stimulated TNFα release from human peripheral blood lymphocytes; format: cell-based; conditions: LPS-stimulated TNFα release from human PBL, read-out: PBL/TNFα EC50
Method: The compounds of structural formula (II) also were tested for an ability to reduce TNFα secretion in human peripheral blood lymphocytes. The ability to reduce TNFα secretion is related to the EC50 values (i.e., the effective concentration of the compound capable of inhibiting 50% of the total TNFα).
To assess the ability of a compound to reduce TNFα secretion in human peripheral blood lymphocytes (PBL), the following tests were performed.
Heparinized blood (approximately 30 mL) drawn from human volunteers was mixed 1:1 with Dulbecco's modified phosphate-buffered saline. This mixture was mixed 1:1 with HISTOPAQUE® and centrifuged at 1,500 rpm at room temperature without braking in the swinging bucket of a Beckman model TJ6 centrifuge. Erythrocytes were centrifuged to the bottom of the tubes, and serum remained at the surface of the tubes. A layer containing lymphocytes sedimented between the serum and HISTOPAQUE® layers, and was removed by aspiration to a fresh tube. The cells were quantified and adjusted to 3×10^6 cells/mL and a 100 μL aliquot is placed into the wells of a 96 well plate. Test compounds and RPMI media (Gibco/BRL Life Sciences) are added to each of the wells 15 minutes prior to addition of bacterial LPS ([…]). The mixture was allowed to incubate for 20 hours at 37° C. in a humidified chamber. The cells then were separated by centrifuging at 800 rpm for 5 minutes at room temperature. An aliquot of 180 μL of supernatant was transferred to a new plate for determination of TNFα concentration. TNFα protein in the cell supernatant fluids was measured using a commercially available enzyme-linked immunosorbent assay (ELISA) (CYTOSCREEN® Immunoassay Kit from Biosource International).
The cell-based assay provided the following results for various pyrrolidine compounds of the present invention. The EC50 values (i.e., effective concentration of the compound capable of inhibiting 50% of the total TNFα) illustrate the ability of the present compounds to inhibit LPS-stimulated TNFα release from human PBL.

[4] = tested on: serum TNFα levels in LPS-injected mice; assay: Inhibition of serum TNFα levels in LPS-injected mice (Mouse/TNFα ED50); format: in vivo; conditions: for ED50: Mus musculus
Method: In order to assess the ability of a compound to reduce serum TNFα levels in mammals, the following protocol was employed. […] Accordingly, in vivo efficacy of a PDE4 reducing compound was shown by dosing with compound and measuring reduction of serum TNFα levels in LPS-injected mice. Female C3H mice, 20-25 gm body weight, were fasted overnight and dosed intraperitoneally with test compound in appropriate vehicle 60 minutes before LPS injection. Five μg of LPS was then injected intraperitoneally into the mice. Ninety minutes after LPS injection, mice were bled from the heart. Blood was allowed to clot overnight at 4° C. Samples were centrifuged for 10 minutes in a microcentrifuge and the serum removed and stored at −20° C. until analysis. Serum levels of TNFα were subsequently measured using a commercially available ELISA kit (Genzyme) following the protocol enclosed in the kit. The percent of inhibition of serum TNFα levels caused by the compound was determined relative to serum TNFα levels in control mice receiving vehicle alone. […]

[5] = Mouse locomotor activity assay (decrease in spontaneous mobility); conditions: female, Balb/c, in vivo
Method: The purpose of this study was to determine the efficacy of PDE4 inhibitors in vivo in an LPS mouse model together with a determination with respect to central nervous system (CNS) side-effects manifested by a decrease in spontaneous mobility.
The test animals were female Balb/c mice, having an average weight of about 20 g. The PDE4 inhibitors, formulated in 30% Cremophor® EL, were administered via intraperitoneal (i.p.) injections at doses of 0.1, 1.0, 10.0, and 100 mg/kg. Individual dose volumes (about 150 μL) were adjusted based on the body weights measured. One hour later, 5 mg/kg LPS in a final volume of 200 μL was injected via the tail vein to each animal. Ninety minutes following the LPS treatment, the animals were bled and serum samples were collected before being stored at −70° C. until assayed.
Movement of the X-Y plane, or rearing up on the hind legs, was quantified by counting the number of “light-beam” crosses per unit of time. A decrease in the number of activity events is directly proportional to the mobility or immobilization of the animal. The quantitative scoring correlated well with the subjective measurements described above.

[6] = tested on: ferret; assay: Emetic modeling in the ferret following oral and intravenous dosing; format: in vivo, Mustela putorius furo
Method: This study was conducted to investigate the emetogenic properties of PDE4 inhibitors in vivo. The ferret previously has been established as a valuable tool for assessing emesis following exposure to test compounds. […] Therefore, lack of and/or decrease in emetic potential of test compounds in ferrets predicts a favorable nonemetic effect in humans. Emesis is a complex physiological response to noxious agents that can be intiated peripherally or centrally.
The test animals were adult, castrated, and descented male ferrets (species=Mustela putorius furo, Strain=Sable) ranging in weight from about 1 to 1.5 kg. The tests were performed in quadruplicate on animals that were naive to PDE4 inhibitors. The PDE4 inhibitors were formulated in 10% Polyoxyl-35 castor oil (CREMOPHOR® EL, available from BASF Corporation, Parsippany, N.J.) in phosphate buffered saline (PBS), and were administered via i.v. injections into an indwelling catheter surgically positioned in the right external jugular vein at a rate of 0.66 mL per kg body weight. PDE4 inhibitors for oral consumption were formulated in 30% CREMOPHOR® EL in PBS, and administered by intubating animals with a 16-gauge feeding needle into the stomach. The animals received the PDE4 inhibitors in a volume of 1.33 mL per kg body weight.
All animals were fasted for 8 to 12 hours prior to administration of PDE4 inhibitors. Following administration of a PDE4 inhibitor, emetic and behavioral responses were quantified for three hours post dosing. The total number of emetic responses and vomiting episodes were quantified during the observation interval. In addition, latency time to first emetic episode, duration of emesis episodes, and gross behavioral changes including ataxia, profuse and viscous salivation, mouth clawing, hyperventilation, backward walking, flattened body posture, hyperactivity, lip licking, and general appearance were recorded.
For comparative purposes, the emetogenic effect of Samples 66 and 69 were tested intravenously at 1.0, 2.5, 5.0, and 10 mg/kg and orally at 2.5, 10, 17, and 25 mg/kg.

[7] = stereoisomer comparison table, read-out: Mouse/TNFα ED50

SMILES: COC(=O)N1CC(c2ccc(OC)c(OC3CCCC3)c2)[C@](C)([C@H](C)O)C1 (stereo partly drawn) [(D)]
- CNS Side Effects ([1]; i.p. 1, 10 and 100 mg/kg): No effect
- IC50 ([2]; stereoisomer comparison table): 515 nM

SMILES: COC(=O)N1C[C@@H](c2ccc(OC)c(OC3Cc4ccccc4C3)c2)[C@](C)(C(C)O)C1 (stereo partly drawn) [Sample No. 61]
- EC50 [3]: 57.8 nM
- CNS Side Effects ([1]; i.p. 1, 10 and 100 mg/kg): Little to no effect (at 50 mg/kg)
- IC50 ([2]; human recombinant PDE4): 18.3 nM
- IC50 ([2]; stereoisomer comparison table): 18.3 nM
- Mouse/TNFα ED50 ([4]; stereoisomer comparison table): 0.2 mg/kg

SMILES: COc1ccc([C@@H]2CN(C(=O)[C@H](N)CO)C[C@@]2(C)[C@@H](C)O)cc1OCC1CC1.Cl [Example 109]
- ED50 ([5]; intraperitoneal, read-out: Mouse Inhibition of Spontaneous Mobility ED50): 100 mg/kg
- ED50 ([4]; read-out: Mouse LPS Challenge ED50): 5 mg/kg

SMILES: COC(=O)N1C[C@@H](c2ccc(OC)c(OC3Cc4ccccc4C3)c2)[C@](C)(C(C)O)C1 (stereo partly drawn) [Sample No. 62]
- EC50 [3]: 10.2 nM
- CNS Side Effects ([1]; i.p. 1, 10 and 100 mg/kg): Little to no effect (at 50 mg/kg)
- IC50 ([2]; human recombinant PDE4): 6.8 nM
- IC50 ([2]; stereoisomer comparison table): 6.8 nM
- Mouse/TNFα ED50 ([4]; stereoisomer comparison table): 0.08 mg/kg

SMILES: COC(=O)N1C[C@H](c2ccc(OC)c(OC3CCCC3)c2)[C@@](C)([C@H](C)O)C1 [(A)]
- EC50 ([3]; Homo sapiens, Lymphocyte): 57 nM
- mouse mobility assessment (footnote statement) ([1]; i.p. 1, 10 and 100 mg/kg, 60 minutes time frame): mice were affected at all doses
- outcome at the highest dose ([1]; mouse, i.p., highest dose (100 mg/kg)): mice became moribund and died within 10 minutes of treatment
- CNS Side Effects ([1]; i.p. 1, 10 and 100 mg/kg): Severe
- Number of Emetic Events: Retches ([6]; intravenous 1.0 mg/kg): 0
- Number of Emetic Events: Total ([6]; intravenous 1.0 mg/kg): 0
- Number of Emetic Events: Vomits ([6]; intravenous 1.0 mg/kg): 0
- Responders ([6]; intravenous 1.0 mg/kg): 0/4
- Number of Emetic Events: Retches ([6]; intravenous 2.5 mg/kg): 3
- Number of Emetic Events: Total ([6]; intravenous 2.5 mg/kg): 3
- Number of Emetic Events: Vomits ([6]; intravenous 2.5 mg/kg): 0
- Responders ([6]; intravenous 2.5 mg/kg): 1/4
- Number of Emetic Events: Retches ([6]; intravenous 5.0 mg/kg): 300
- Number of Emetic Events: Total ([6]; intravenous 5.0 mg/kg): 300
- Number of Emetic Events: Vomits ([6]; intravenous 5.0 mg/kg): 0
- Responders ([6]; intravenous 5.0 mg/kg): 2/2
- outcome after intravenous dosing ([6]; intravenous 5 mg/kg body weight): one of the tested animals died almost immediately after dosing
- Number of Emetic Events: Retches ([6]; oral 2.5 mg/kg): 0
- Number of Emetic Events: Total ([6]; oral 2.5 mg/kg): 0
- Number of Emetic Events: Vomits ([6]; oral 2.5 mg/kg): 0
- Responders ([6]; oral 2.5 mg/kg): 0/4
- Number of Emetic Events: Retches ([6]; oral 10.0 mg/kg): 27
- Number of Emetic Events: Total ([6]; oral 10.0 mg/kg): 32
- Number of Emetic Events: Vomits ([6]; oral 10.0 mg/kg): 5
- Responders ([6]; oral 10.0 mg/kg): 3/4
- Number of Emetic Events: Retches ([6]; oral 17.0 mg/kg): 51
- Number of Emetic Events: Total ([6]; oral 17.0 mg/kg): 58
- Number of Emetic Events: Vomits ([6]; oral 17.0 mg/kg): 7
- Responders ([6]; oral 17.0 mg/kg): 3/4
- Number of Emetic Events: Retches ([6]; oral 25.0 mg/kg): 88
- Number of Emetic Events: Total ([6]; oral 25.0 mg/kg): 114
- Number of Emetic Events: Vomits ([6]; oral 25.0 mg/kg): 26
- Responders ([6]; oral 25.0 mg/kg): 4/4
- emetic response, comparison of compounds ([6]; oral or intravenous): much stronger emetic response than compound (C)
- IC50 ([2]; human recombinant PDE4): 13.3 nM
- IC50 ([2]; stereoisomer comparison table): 13.3 nM
- ED50 [4, 7]: 7 mg/kg

SMILES: COC(=O)N1CC(c2ccc(OC)c(OC3CCCC3)c2)[C@@](C)([C@@H](C)O)C1 (stereo partly drawn) [(B)]
- CNS Side Effects ([1]; i.p. 1, 10 and 100 mg/kg): No effect
- IC50 ([2]; stereoisomer comparison table): 61.1 nM
- ED50 [4, 7]: 12 mg/kg

SMILES: COc1ccc([C@@H]2CN(C(=O)[C@H](C)O)C[C@@]2(C)[C@@H](C)O)cc1OC1CCCC1 [Example 67, 1-[3-((1R)-1-Hydroxyethyl)(3S,4S)-4-(3-cyclopentyloxy-4-methoxyphenyl)-3-methylpyrrolidinyl](2S)-2-hydroxypropan-1-one]
- EC50 ([3]; Homo sapiens, Lymphocyte): 603 nM
- ED50 ([5]; ip, read-out: ED50, effective dose that decreases spontaneous mobility 50% of control): > 50 mg/kg

SMILES: CNC(=O)C(=O)N1C[C@@H](c2ccc(OC)c(OC3CCCC3)c2)[C@](C)([C@@H](C)O)C1 [Example 80, 2-[3-((1R)-1-Hydroxyethyl)(3S,4S)-4-(3-cyclopentyloxy-4-methoxyphenyl)-3-methylpyrrolidinyl]-N-methyl-2-oxoacetamide]
- EC50 ([3]; Homo sapiens, Lymphocyte): 272 nM

SMILES: COc1ccc([C@@H]2CN(C(=O)C(N)=O)C[C@@]2(C)[C@@H](C)O)cc1OC1Cc2ccccc2C1 [Example 79, 2-{(3S,4S)-3-((R)-1-Hydroxyethyl)-4-[3-(indan-2-yloxy)-4-methoxyphenyl]-3-methylpyrrolidin-1-yl}-2-oxo-acetamide]
- EC50 ([3]; Homo sapiens, Lymphocyte): 2370 nM

SMILES: COc1ccc([C@@H]2CN(C(=O)C(N)=O)C[C@@]2(C)[C@@H](C)O)cc1OCC#Cc1ccc(C(F)(F)F)cc1 [Example 76, 2-((3S,4S)-3-((R)-1-Hydroxyethyl)-4-{4-methoxy-3-(3-(4-trifluoromethyl-phenyl)prop-2-ynyloxy]-phenyl}-3-methylpyrrolidin-1-yl)-2-oxo-acetamide]
- EC50 ([3]; Homo sapiens, Lymphocyte): 173 nM

SMILES: COc1ccc([C@@H]2CN(c3ccccn3)C[C@@]2(C)[C@@H](C)O)cc1OC1CCCC1 [Example 34, (1R)-1-[(3S,4S)-4-(3-Cyclopentyloxy-4-methoxyphenyl)-3-methyl-1-(2-pyridyl)pyrrolidin-3-yl]ethan-1-ol]
- EC50 ([3]; Homo sapiens, Lymphocyte): 250 nM
